In patent publication US12692254B2, “Benzimidazole inhibitors of PAD enzymes” (BRISTOL-MYERS SQUIBB COMPANY, priority 2018, dated 2026):

Biological target: human PAD4 (hPAD4) (Homo sapiens, UniProt Q9UM07)
Experiment: RFMS human PAD4 functional assay (rapid-fire mass spectrum)
Format: biochemical
Details: 5 nM hPAD4 enzyme, 250 μM BAEE, 50 μM Calcium; 30 min preincubation, 90 min reaction at 37° C.
Experimental: Compounds of the present invention were assayed as inhibitors of PAD4 using the assay protocol described below.
RFMS tinman PAD4 Functional Assay:
Compounds were solubilized in 100% DMSO to achieve a 10 mM compound concentration. Compound stock solutions were stored at RT. A series of dilutions were prepared in DMSO and mixed 8 times with 20 μl, mixing volume. Final top concentration of compound in the assay is 50 μM. […] 1-90 min enzyme/substrate reaction, 30 min reaction with phenyl glyoxal at 37° C. • Stop solution: 40 μl 5% TCA in ACN
0.13 μL of compound solution was added to 13 μL of 10 nM PAD4 in assay buffer. After 30 min 13 μl of 500 μM of BAEE was added in 25 mM hepes, pH 7.5, 5 mM NaCl, 1 mM DTT, 0.2 mg/ml BS A, 0.01% CHAPS, 50 μM Calcium, 5 μM TPEN was added and the reaction incubated for 90 min at 37° C. The enzymatic reaction was quenched by addition of 15 μl of 6.1N TCA, 100% Final Concentration is 20%, 35 μl of 8.5 mM phenyl glyoxal (final concentration 4 mM) is then added and the reaction is incubated for 30 min at 37° C.
After 30 minutes the plates are spun down to remove all precipitate. The enzyme reaction was quenched with an equal volume of methanol containing internal standard (modified citrulline). Samples were loaded onto the Rapid Fire RF300 system (Agilent) wherein they were first sipped for 1000 ms and then directly loaded to a C18 separations cartridge using a mixture of acetonitrile containing 0.01% formic acid for 3000 ms desalting. The flow rate of the mobile phase was 1.5 ml/min.
The dwell time for each transition was set at 200 ms, and the ESI voltage was used at 5500 with a source temperature of 400° C. Extracted ion peaks for each transition were integrated using the Rapid Fire Integrator software. Peak area of analyte was normalized with internal standard).

Sequence of human PAD4 (hPAD4) (Q9UM07 whole entry): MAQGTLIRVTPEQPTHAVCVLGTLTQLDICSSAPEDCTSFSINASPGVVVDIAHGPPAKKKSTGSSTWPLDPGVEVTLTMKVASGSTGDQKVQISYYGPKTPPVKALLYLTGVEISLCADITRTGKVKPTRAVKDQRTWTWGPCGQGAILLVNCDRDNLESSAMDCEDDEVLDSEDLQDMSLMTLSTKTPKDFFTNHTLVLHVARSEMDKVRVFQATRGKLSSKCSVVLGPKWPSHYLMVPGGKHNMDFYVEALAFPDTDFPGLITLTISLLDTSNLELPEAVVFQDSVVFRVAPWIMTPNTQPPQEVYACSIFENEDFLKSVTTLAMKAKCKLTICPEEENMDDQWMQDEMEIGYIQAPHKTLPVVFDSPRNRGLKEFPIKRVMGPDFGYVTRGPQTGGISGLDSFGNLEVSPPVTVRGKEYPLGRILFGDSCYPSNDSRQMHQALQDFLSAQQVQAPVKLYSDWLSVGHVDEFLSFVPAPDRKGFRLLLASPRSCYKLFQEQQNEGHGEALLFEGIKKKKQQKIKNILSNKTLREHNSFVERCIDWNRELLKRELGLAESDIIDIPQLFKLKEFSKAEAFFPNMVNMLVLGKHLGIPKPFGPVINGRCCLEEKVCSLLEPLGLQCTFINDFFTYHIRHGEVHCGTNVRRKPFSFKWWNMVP

Structure (SMILES) | IC50
COc1cc(C(=O)N2C[C@H]3CC[C@@H]2[C@@H]3N)cc2nc(-c3cc4ccccc4n3CC3CC3)n(CC3CN(C(=O)c4ccccc4C#N)C3)c12 [Example 159, 2-[3-({5-[(1R,4R,7R)-7-amino-2-azabicyclo[2.2.1]heptane-2-carbonyl]-2-[1-(cyclopropylmethyl)-1H-indol-2-yl]-7-methoxy-1H-1,3-benzodiazol-1-yl}methyl)azetidine-1-carbonyl]benzonitrile] | 24 nM
Cn1cc(Cn2c(-c3cc4ccccc4n3CC3CC3)nc3cc(C(=O)N4CC5CCC4[C@@H]5N)cc(F)c32)cn1 (stereo partly drawn) [Example 483, (7R)-2-{2-[1-(cyclopropylmethyl)-1H-indol-2-yl]-7-fluoro-1-[(1-methyl-1H-pyrazol-4-yl)methyl]-1H-1,3-benzodiazole-5-carbonyl}-2-azabicyclo[2.2.1]heptan-7-amine] | 30 nM
COc1cc(C(=O)N2CC3CCC2[C@@H]3N)cc2nc(-c3cc4cccnc4n3CC3CC3)n(Cc3cnn(-c4ncccn4)c3)c12 (stereo partly drawn) [Example 398, (7R)-2-{2-[1-(cyclopropylmethyl)-1H-pyrrolo[2,3-b]pyridin-2-yl]-7-methoxy-1-{[1-(pyrimidin-2-yl)-1H-pyrazol-4-yl]methyl}-1H-1,3-benzodiazole-5-carbonyl}-2-azabicyclo[2.2.1]heptan-7-amine] | 54 nM
COc1cc(C(=O)N2CC3CCC2[C@@H]3N)cc2nc(-c3cc4ccccc4n3CC(F)F)n(Cc3cnn(C)c3)c12 (stereo partly drawn) [Example 502, (7R)-2-{2-[1-(2,2-difluoroethyl)-1H-indol-2-yl]-7-methoxy-1-[(1-methyl-1H-pyrazol-4-yl)methyl]-1H-1,3-benzodiazole-5-carbonyl}-2-azabicyclo[2.2.1]heptan-7-amine] | 146 nM
COc1cc(C(=O)N2C[C@H]3CC[C@@H]2[C@@H]3N)cc2nc(-c3cc4ccc(Cl)cc4n3CC3CC3)n(CC3CN(c4ccnc(C5CC5)n4)C3)c12 [Example 53, (1R,4R,7R)-2-{2-[6-chloro-1-(cyclopropylmethyl)-1H-indol-2-yl]-1-{[1-(2-cyclopropylpyrimidin-4-yl)azetidin-3-yl]methyl}-7-methoxy-1H-1,3-benzodiazole-5-carbonyl}-2-azabicyclo[2.2.1]heptan-7-amine] | 157 nM
COc1cc(C(=O)N2CC3CCC2[C@@H]3N)cc2nc(-c3cc4cccnc4n3CC3CC3)n(CC3CN(S(=O)(=O)c4ccccc4)C3)c12 (stereo partly drawn) [Example 326] | 197 nM
COc1cc(C(=O)N2C[C@H]3CC[C@@H]2[C@@H]3N)cc2nc(-c3cc4cccnc4n3CC3CC3)n(CC3CN(c4cncc(C#N)n4)C3)c12 [Example 3, 6-(3-((5-((1R,4R,7R)-7-amino-2-azabicyclo[2.2.1]heptane-2-carbonyl)-2-(1-(cyclopropylmethyl)-1H-pyrrolo[2,3-b]pyridin-2-yl)-7-methoxy-1H-benzo[d]imidazol-1-yl)methyl)azetidin-1-yl)pyrazine-2-carbonitrile] | 55 nM
COc1cc(C(=O)N2C[C@H]3CC[C@@H]2[C@@H]3N)cc2nc(-c3cc4cccnc4n3CC3CC3)n(CC3CN(c4cncnc4C#N)C3)c12 [Example 46, 5-[3-({5-[(1R,4R,7R)-7-amino-2-azabicyclo[2.2.1]heptane-2-carbonyl]-2-[1-(cyclopropylmethyl)-1H-pyrrolo[2,3-b]pyridin-2-yl]-7-methoxy-1H-1,3-benzodiazol-1-yl}methyl)azetidin-1-yl]pyrimidine-4-carbonitrile] | 118 nM
COc1cc(C(=O)N2CC3CCC2[C@@H]3N)cc2nc(-c3cc4cccnc4n3CC3CC3)n(Cc3cnn(-c4cccc(O)n4)c3)c12 (stereo partly drawn) [Example 353, 6-[4-({5-[(7R)-7-amino-2-azabicyclo[2.2.1]heptane-2-carbonyl]-2-[1-(cyclopropylmethyl)-1H-pyrrolo[2,3-b]pyridin-2-yl]-7-methoxy-1H-1,3-benzodiazol-1-yl}methyl)-1H-pyrazol-1-yl]pyridin-2-ol] | 20 nM
